# Laboratory results taken from patent US7504391B2, “Selective D1/D5 receptor antagonists for the treatment of obesity and CNS disorders” (Schering Corporation, priority 2003, dated 2009).
# Like-named read-outs stand apart in the source and are kept apart here.
# Assays:
# human D1 receptors [1] = target: T1, human D1 receptors (Homo sapiens, UniProt P21728); test: Radioligand binding competition assay at D1 receptor
# T1 construct: expressed in transfected cells; host or cells: Ltk- cells (mouse fibroblasts); membrane preparation
# Procedure: (§1) Affinity values (Ki) of compounds at human D1 and D2 receptors were ascertained using radioligand binding competition assays. Ltk-cells expressing D1 and D2 (long variant) receptors were lysed in hypotonic buffer for membrane preparation. Membranes were incubated with various concentrations of test compound and 1 nM [3H] of a compound of formula III and 0.2 nM [3H] Methylspiperone for D1 and D2 assays, respectively. Non-specific binding was defined as binding in the presence of 10 micromolar of a compound of formula III for D1 assays and 10 micromolar butaclamol for […]. Following incubation to equilibrium (1 hour at room temperature), bound radioligand was separated from free by rapid filtration. Bound radioactivity on the dried filters was quantified by liquid scintillation counting.
# (§2) Selectivity is determined by dividing Ki for D2 receptor by Ki for D1 receptor.
# human D1 receptors [2] = test: as above; settings: Ki for D2 receptor divided by Ki for D1 receptor
# Procedure: as §1, §2
# [3] = class by Ki (D1) and selectivity (Ki D2 / Ki D1), human D1 and D2 (long variant) receptors, Ltk- cell membranes, read-out: D1 binding and D2:D1 Selectivity
# T1 sequence (P21728 whole entry): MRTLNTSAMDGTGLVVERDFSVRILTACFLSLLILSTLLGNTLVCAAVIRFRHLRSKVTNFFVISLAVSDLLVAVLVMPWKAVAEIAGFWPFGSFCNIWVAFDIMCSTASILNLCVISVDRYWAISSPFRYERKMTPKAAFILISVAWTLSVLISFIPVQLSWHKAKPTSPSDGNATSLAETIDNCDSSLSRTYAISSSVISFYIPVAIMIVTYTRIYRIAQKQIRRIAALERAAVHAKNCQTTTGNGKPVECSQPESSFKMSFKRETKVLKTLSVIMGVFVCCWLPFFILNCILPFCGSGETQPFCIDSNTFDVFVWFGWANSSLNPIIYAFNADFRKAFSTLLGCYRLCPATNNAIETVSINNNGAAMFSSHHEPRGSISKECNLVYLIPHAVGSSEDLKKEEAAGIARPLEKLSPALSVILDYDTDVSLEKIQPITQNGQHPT
SMILES,Ki (human D1 receptors [1]; [3]),Ki (human D1 receptors [1]),also measured
COc1ccc(OC(=O)Nc2cccc3c2CC[C@H]2[C@H]3c3cc(O)c(Cl)cc3CCN2C)cc1 [24b2],–,< 5 nM,–
CCNC(=O)Nc1ccc2c(c1)CC[C@H]1[C@H]2c2cc(O)c(Cl)cc2CCN1C [20b6],–,< 5 nM,–
CN1CCc2cc(Cl)c(O)cc2[C@H]2c3ccc(NS(=O)(=O)c4cccc(C#N)c4)cc3CC[C@@H]21 [19b24],–,< 10 nM,–
CNC(=O)c1cccc2c1CCC1C2c2cc(O)c(Cl)cc2CCN1C (stereo not drawn) [13a24],< 5 nM,–,–
CN1CCN(C(=O)c2cccc3c2CCC2C3c3cc(O)c(Cl)cc3CCN2C)CC1 (stereo not drawn) [13a6],10 to 50 nM,–,–
COC(=O)Nc1ccc2c(c1)CC[C@H]1[C@H]2c2cc(O)c(Cl)cc2CCN1C [24a1],< 5 nM,–,–
CN1CCc2cc(Cl)c(O)cc2[C@H]2c3ccc(NC(=O)Nc4c(Cl)cccc4Cl)cc3CC[C@@H]21 [20b30],–,< 5 nM,–
COc1ccc(OC(=O)Nc2ccc3c(c2)CC[C@H]2[C@H]3c3cc(O)c(Cl)cc3CCN2C)cc1 [24a3],–,< 5 nM,–
CN1CCc2cc(Cl)c(O)cc2[C@H]2c3ccc(NS(C)(=O)=O)cc3CC[C@@H]21 [19b1],< 5 nM,–,"D2:D1 ratio (selectivity) (human D1 receptors [2]): 6642; Ki (human D1 receptors [1]; membranes of Ltk- cells expressing human D1, 1 nM [3H] compound of formula III, 1 hour at room temperature, read-out: Ki (D1)): 0.45 nM"
CN1CCc2cc(Cl)c(O)cc2[C@H]2c3cccc(-c4ncc[nH]4)c3CC[C@@H]21 [25c],< 5 nM,–,–
CN1CCc2cc(Cl)c(O)cc2[C@H]2c3ccc(N(C)S(C)(=O)=O)cc3CC[C@@H]21 [compound 23],< 5 nM,–,–
CN1CCc2cc(Cl)c(O)cc2[C@H]2c3cccc(NC(=O)Nc4cc(Cl)nc(Cl)c4)c3CC[C@@H]21 [20a33],–,10 to 50 nM,–
CCS(=O)(=O)Nc1ccc2c(c1)CC[C@H]1[C@H]2c2cc(O)c(Cl)cc2CCN1C [19b5],–,< 5 nM,–
CN1CCc2cc(Cl)c(O)cc2[C@H]2c3ccc(NCC4CCCC4)cc3CC[C@@H]21 [21a2],–,< 5 nM,–
CC(=O)N(CC1CCCC1)c1ccc2c(c1)CC[C@H]1[C@H]2c2cc(O)c(Cl)cc2CCN1C [22a2],10 to 50 nM,–,–
CN1CCc2cc(Cl)c(O)cc2[C@H]2c3ccc(NC(=O)C4CCCC4)cc3CC[C@@H]21 [18a6],–,< 5 nM,–
CN1CCc2cc(Cl)c(O)cc2C2c3cccc(C(=O)N4CCN(c5ccccn5)CC4)c3CCC21 (stereo not drawn) [13a2],< 10 nM,–,–
CS(=O)(=O)Nc1ccc2c(c1)CC[C@@H]1NCCc3cc(Cl)c(O)cc3[C@@H]21 [30a],< 10 nM,–,–
CN1CCc2cc(Cl)c(O)cc2[C@H]2c3ccc(NC(=O)C4CC4)cc3CC[C@@H]21 [18a1],< 5 nM,–,–
CN1CCc2cc(Cl)c(O)cc2[C@H]2c3cccc(NC(=O)N4CCCC4)c3CC[C@@H]21 [20a7],–,< 5 nM,–
CN(C)Cc1cccc2c1CC[C@H]1[C@H]2c2cc(O)c(Cl)cc2CCN1C [5a50],< 5 nM,–,–
CN(C)C(=O)c1cccc2c1CCC1C2c2cc(O)c(Cl)cc2CCN1C (stereo not drawn) [13a12],< 10 nM,–,–
CCCS(=O)(=O)Nc1ccc2c(c1)CC[C@H]1[C@H]2c2cc(O)c(Cl)cc2CCN1C [19b23],–,< 5 nM,–
CN1CCc2cc(Cl)c(O)cc2[C@H]2c3ccc(NC(=O)CC4CC4)cc3CC[C@@H]21 [18a8],–,< 10 nM,–
CN1CCc2cc(Cl)c(O)cc2[C@H]2c3cccc(CNC4CC4)c3CC[C@@H]21 [5a38],< 5 nM,–,–
CN1CCc2cc(Cl)c(O)cc2[C@H]2c3ccc(NS(=O)(=O)N(C)C)cc3CC[C@@H]21 [19b32],–,< 5 nM,–
CN1CCc2cc(Cl)c(O)cc2[C@H]2c3cccc(C#N)c3CC[C@@H]21 [27a],< 10 nM,–,–
Oc1cc2c(cc1Cl)CCN[C@H]1CCc3c(-c4ccncc4)cccc3[C@H]21 [29c],< 5 nM,–,–
CN1CCc2cc(Cl)c(O)cc2[C@H]2c3cccc(NS(=O)(=O)c4ccc(F)cc4)c3CC[C@@H]21 [19a6],–,< 10 nM,–

# More lines, main results first:
Ki (human D1 receptors [1]; [3]),Ki (human D1 receptors [1]),SMILES,also measured
< 5 nM,–,CCOC(=O)Nc1ccc2c(c1)CC[C@H]1[C@H]2c2cc(O)c(Cl)cc2CCN1C [24a2],–
< 100 nM,–,CN1CCc2cc(Cl)c(O)cc2[C@H]2c3cc(CNc4cccnc4)ccc3CC[C@@H]21 [5b46],–
< 10 nM,–,CN1CCc2cc(Cl)c(O)cc2C2c3cccc(C(=O)NCc4ccccc4)c3CCC21 (stereo not drawn) [13a21],–
< 5 nM,–,CC(=O)N(Cc1ccc(C2CN(C)CCc3cc(Cl)c(O)cc32)cc1)C1CCC1 (stereo not drawn) [6c26],–
< 10 nM,–,CN1CCc2cc(Cl)c(O)cc2C(c2ccc(NS(=O)(=O)c3ccccc3)cc2)C1 (stereo not drawn) [35a2],–
< 10 nM,–,CCCN(Cc1ccc(C2CN(C)CCc3cc(Cl)c(O)cc32)cc1)C(=O)Nc1ccccc1 (stereo not drawn) [8c33],–
–,< 10 nM,CC(=O)Nc1ccc2c(c1)CC[C@H]1[C@H]2c2cc(O)c(Cl)cc2CCN1C [18a4],–
< 5 nM,–,CN1CCc2cc(Cl)c(O)cc2[C@H]2c3ccc(NCc4ccccc4)cc3CC[C@@H]21 [21a1],–
< 5 nM,–,CN1CCc2cc(Cl)c(O)cc2C(c2ccc(CN(C3CCC3)S(C)(=O)=O)cc2)C1 (stereo not drawn) [7c16],–
< 10 nM,–,CN1CCc2cc(Cl)c(O)cc2C2c3cccc(C(=O)NCCc4ccccn4)c3CCC21 (stereo not drawn) [13a20],–
–,< 5 nM,CN1CCc2cc(Cl)c(O)cc2[C@H]2c3ccc(NS(=O)(=O)Cc4ccccc4)cc3CC[C@@H]21 [19b31],–
< 5 nM,–,CN1CCc2cc(Cl)c(O)cc2C2c3cccc(C(=O)NCCc4ccccc4)c3CCC21 (stereo not drawn) [13a7],–
< 100 nM,–,CC(C)NC(=O)N(Cc1ccc2c(c1)[C@@H]1c3cc(O)c(Cl)cc3CCN(C)[C@H]1CC2)c1ccccc1 [8b11],–
10 to 50 nM,–,CN1CCc2cc(Cl)c(O)cc2[C@H]2c3cc(CN(Cc4ccccc4)C(=O)c4ccccc4)ccc3CC[C@@H]21 [6b1],–
< 10 nM,–,CN1CCc2cc(Cl)c(O)cc2[C@H]2c3cccc(CNC(c4ccccc4)c4ccccc4)c3CC[C@@H]21 [5a14],–
–,< 5 nM,CN(C)C(=O)Nc1cccc2c1CC[C@H]1[C@H]2c2cc(O)c(Cl)cc2CCN1C [20a8],–

Ki (human D1 receptors [1]; [3]),Ki (human D1 receptors [1]),SMILES,also measured
–,10 to 50 nM,CN1CCc2cc(Cl)c(O)cc2[C@H]2c3cccc(NC(=O)c4cccc5ccccc45)c3CC[C@@H]21 [18b15],–
< 100 nM,–,CN1CCc2cc(Cl)c(O)cc2[C@H]2c3cc(CN(Cc4ccccc4)S(C)(=O)=O)ccc3CC[C@@H]21 [7b7],–
< 5 nM,–,CN1CCc2cc(Cl)c(O)cc2C(c2ccc(NS(C)(=O)=O)cc2)C1 (stereo not drawn) [35a1],–
< 10 nM,–,CC(=O)N(Cc1ccc([C@H]2CNCCc3cc(Cl)c(O)cc32)cc1)C1CCC1 [34a2],–
10 to 50 nM,–,CC(=O)N(Cc1cccc2c1CC[C@H]1[C@H]2c2cc(O)c(Cl)cc2CCN1C)c1ccccc1 [6a6],–
< 5 nM,–,CN1CCc2cc(Cl)c(O)cc2[C@H]2c3cccc(CNCc4ccccc4)c3CC[C@@H]21 [5a1],–
10 to 50 nM,–,CC(=O)N(CCCCc1ccccc1)c1ccc2c(c1)[C@@H]1c3cc(O)c(Cl)cc3CCN(C)[C@H]1CC2 [22b1],–
< 10 nM,–,CN1CCc2cc(Cl)c(O)cc2C2c3cccc(C(=O)NCc4ccccn4)c3CCC21 (stereo not drawn) [13a14],–
< 5 nM,–,C[C@@H](NCc1ccc(C2CN(C)CCc3cc(Cl)c(O)cc32)cc1)C1CCCCC1 (stereo partly drawn) [5c16],–
< 10 nM,–,CN1CCc2cc(Cl)c(O)cc2C2c3cccc(C(=O)NCc4cccnc4)c3CCC21 (stereo not drawn) [13a16],–
–,10 to 50 nM,CN1CCc2cc(Cl)c(O)cc2[C@H]2c3cc(S(=O)(=O)NCc4ccccc4)ccc3CC[C@@H]21 [15l],–
–,< 10 nM,CN1CCc2cc(Cl)c(O)cc2[C@H]2c3ccc(NC(=O)Nc4ccccc4Cl)cc3CC[C@@H]21 [20b5],–
< 10 nM,–,CN1CCc2cc(Cl)c(O)cc2C2c3cccc(C(=O)NCc4ccncc4)c3CCC21 (stereo not drawn) [13a19],–
< 5 nM,–,CN1CCc2cc(Cl)c(O)cc2C(c2ccc(CN(C)S(=O)(=O)c3ccccc3)cc2)C1 (stereo not drawn) [7c18],–
10 to 50 nM,–,CCNC(=O)N(Cc1ccc(F)cc1)Cc1cccc2c1CC[C@H]1[C@H]2c2cc(O)c(Cl)cc2CCN1C [8a3],–
10 to 50 nM,–,CC(NC(=O)c1ccc(C2CN(C)CCc3cc(Cl)c(O)cc32)cc1)c1ccccc1 (stereo not drawn) [13d1],–
